# From patent US12371454B2, “Cyclic peptide compound having Kras inhibitory action” (priority 2019, dated 2025)
# Positions of bridges follow the written chain, without caps; N, C: chain ends. Non-standard residues stand in square brackets, D forms with d. Residues, ends and D or L forms follow the SMILES beside them. *: point of attachment. hPhe(3-Cl-4-CF3) = N[C@@H](CCc1ccc(C(F)(F)F)c(Cl)c1)C(=O)O; NMeAbu(4,4,4-F3) = CN[C@@H](CC(F)(F)F)C(=O)O; NMePhe(3-Br) = CN[C@@H](Cc1cccc(Br)c1)C(=O)O; NMePhe(4-Me) = CN[C@@H](Cc1ccc(C)cc1)C(=O)O; NMePhe(4-F) = CN[C@@H](Cc1ccc(F)cc1)C(=O)O; Abu(4,4,4-F3) = N[C@@H](CC(F)(F)F)C(=O)O; NMeAla(cPent) = CN[C@@H](CC1CCCC1)C(=O)O; NMeGly(cPent) = CN[C@H](C(=O)O)C1CCCC1; NMe3Pal = CN[C@@H](Cc1cccnc1)C(=O)O; NMeCha = CN[C@@H](CC1CCCCC1)C(=O)O; Pro(4-oxo) = O=C1CN[C@H](C(=O)O)C1; NMeChg = CN[C@H](C(=O)O)C1CCCCC1; NMeF = CN[C@@H](Cc1ccccc1)C(=O)O; NMeI = CC[C@H](C)[C@H](NC)C(=O)O; Gly(cPr) = N[C@H](C(=O)O)C1CC1; NMeD = CN[C@@H](CC(=O)O)C(=O)O; dNMeD = CN[C@H](CC(=O)O)C(=O)O; NMeL = CN[C@@H](CC(C)C)C(=O)O; NMeNle = CCCC[C@H](NC)C(=O)O; NMeV = CN[C@H](C(=O)O)C(C)C; d(β3hA) = C[C@@H](N)CC(=O)O; NMeS = CN[C@@H](CO)C(=O)O; Morpholide = C1CN(*)CCO1; NMeA = CN[C@@H](C)C(=O)O; Piperidide = C1CCN(*)CC1; Pyrrolidide = C1CCN(*)C1; dNMeA = CN[C@H](C)C(=O)O; Ac5c = NC1(C(=O)O)CCCC1; Aze = O=C(O)[C@@H]1CCN1; Cyclopropyl = C1CC1*; Sar = CNCC(=O)O; Propyl = CCC*
# Target: T1, Kras and SOS1 (biotin-tagged human Kras loaded with GDP, His-tagged human SOS1) (Homo sapiens, UniProt P01116, G12D)
# T1 construct: made in house; host or cells: E. coli (stated for Kras only)
# Test: Protein-protein interaction inhibition between Kras and SOS1 (KrasGl2D-SOS PPI) using AlphaScreen
# Format: binding
# Settings: AlphaScreen; biotin-tagged human Kras loaded with GDP, His-tagged human SOS1; read-out: KRAS G12D-SOS PPI IC50
# Summary of the method: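 Binding between SOS1 and Kras is detected as bead-proximity luminescence: illuminate Ni-conjugated donors (680 nm), collect 520-620 nm emission from streptavidin-conjugated acceptors; Kras carries biotin and GDP loaded after purification, SOS1 carries a His tag.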
# T1 sequence (P01116 1-188 isoform P01116-2 G12D): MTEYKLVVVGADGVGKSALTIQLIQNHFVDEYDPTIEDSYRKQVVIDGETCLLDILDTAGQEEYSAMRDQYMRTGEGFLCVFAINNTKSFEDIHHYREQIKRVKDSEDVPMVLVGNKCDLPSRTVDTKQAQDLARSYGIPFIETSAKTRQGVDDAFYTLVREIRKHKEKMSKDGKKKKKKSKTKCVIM
row,SMILES,IC50
1,CC[C@H](C)[C@@H]1NC(=O)[C@H](CC(C)C)N(C)C(=O)C[C@H](C(=O)N2CCCC2)N(C)C(=O)[C@H]([C@@H](C)CC)N(C)C(=O)C2(CCCC2)NC(=O)[C@@H]2CCCN2C(=O)[C@H](CCc2ccc(C(F)(F)F)c(Cl)c2)NC(=O)CN(C)C(=O)[C@H](CC2CCCCC2)N(C)C(=O)CN(C)C(=O)CN(C)C1=O [Compound 1814] ([NMeL]I[Sar][Sar][NMeCha][Sar][hPhe(3-Cl-4-CF3)]P[Ac5c][NMeI][dNMeD]-Pyrrolidide; lactam N-11),170 nM
2,CCCC[C@H]1C(=O)N(C)[C@H](C(=O)N2CCCCC2)CC(=O)N(C)[C@@H](CC(C)C)C(=O)N[C@@H]([C@@H](C)CC)C(=O)N(C)CC(=O)N(C)CC(=O)N(C)[C@@H](CC2CCCCC2)C(=O)N(C)CC(=O)N[C@@H](CCc2ccc(C(F)(F)F)c(Cl)c2)C(=O)N2CCC[C@H]2C(=O)NC2(CCCC2)C(=O)N1C [Compound 1815] ([NMeL]I[Sar][Sar][NMeCha][Sar][hPhe(3-Cl-4-CF3)]P[Ac5c][NMeNle][NMeD]-Piperidide; lactam N-11),2.5 nM
3,CC[C@H](C)[C@@H]1NC(=O)[C@H](CC(C)C)N(C)C(=O)C[C@@H](C(=O)N2CCCC2)N(C)C(=O)[C@H](C2CCCC2)N(C)C(=O)C2(CCCC2)NC(=O)[C@@H]2CCCN2C(=O)[C@H](CCc2ccc(C(F)(F)F)c(Cl)c2)NC(=O)CN(C)C(=O)[C@H](CC2CCCCC2)N(C)C(=O)CN(C)C(=O)CN(C)C1=O [Compound 1818] ([NMeL]I[Sar][Sar][NMeCha][Sar][hPhe(3-Cl-4-CF3)]P[Ac5c][NMeGly(cPent)][NMeD]-Pyrrolidide; lactam N-11),0.4 nM
4,CC[C@H](C)[C@@H]1NC(=O)[C@H](CC(C)C)N(C)C(=O)C[C@@H](C(=O)N2CCCCC2)N(C)C(=O)[C@H](C(C)C)N(C)C(=O)C2(CCCC2)NC(=O)[C@@H]2CC(=O)CN2C(=O)[C@H](CCc2ccc(C(F)(F)F)c(Cl)c2)NC(=O)CN(C)C(=O)[C@H](CC2CCCCC2)N(C)C(=O)[C@@H]2CCN2C(=O)[C@H](C)N(C)C1=O [Compound 1819] ([NMeL]I[NMeA][Aze][NMeCha][Sar][hPhe(3-Cl-4-CF3)][Pro(4-oxo)][Ac5c][NMeV][NMeD]-Piperidide; lactam N-11),3.8 nM
5,CC[C@H](C)[C@@H]1NC(=O)[C@H](C)N(C)C(=O)C[C@@H](C(=O)N2CCCC2)N(C)C(=O)[C@H](C2CCCCC2)N(C)C(=O)C2(CCCC2)NC(=O)[C@H](Cc2cccnc2)N(C)C(=O)[C@H](CCc2ccc(C(F)(F)F)c(Cl)c2)NC(=O)CN(C)C(=O)[C@H](CC2CCCCC2)N(C)C(=O)CN(C)C(=O)CN(C)C1=O [Compound 1834] ([NMeA]I[Sar][Sar][NMeCha][Sar][hPhe(3-Cl-4-CF3)][NMe3Pal][Ac5c][NMeChg][NMeD]-Pyrrolidide; lactam N-11),0.81 nM
6,CC[C@H](C)[C@@H]1NC(=O)[C@H](CC(C)C)N(C)C(=O)C[C@@H](C(=O)N(C)C)N(C)C(=O)[C@H]([C@@H](C)CC)N(C)C(=O)C2(CCCC2)NC(=O)[C@@H]2CCCN2C(=O)[C@H](CCc2ccc(C(F)(F)F)c(Cl)c2)NC(=O)CN(C)C(=O)[C@H](Cc2ccc(C)cc2)N(C)C(=O)CN(C)C(=O)CN(C)C1=O [Compound 1836] ([NMeL]I[Sar][Sar][NMePhe(4-Me)][Sar][hPhe(3-Cl-4-CF3)]P[Ac5c][NMeI][NMeD]-NMe2; lactam N-11),0.47 nM
7,"CC[C@H](C)[C@@H]1NC(=O)[C@H](CC(C)C)N(C)C(=O)C[C@@H](C(=O)N2CCCCC2)N(C)C(=O)[C@H](C2CCCCC2)N(C)C(=O)C2(CCCC2)NC(=O)[C@@H]2CCCN2C(=O)[C@H](CCc2ccc(C(F)(F)F)c(Cl)c2)NC(=O)CN(C)C(=O)[C@H](CC(F)(F)F)N(C)C(=O)CN(C)C(=O)CN(C)C1=O [Compound 1841] ([NMeL]I[Sar][Sar][NMeAbu(4,4,4-F3)][Sar][hPhe(3-Cl-4-CF3)]P[Ac5c][NMeChg][NMeD]-Piperidide; lactam N-11)",4.4 nM
8,CC[C@H](C)[C@@H]1NC(=O)[C@H](C)N(C)C(=O)C[C@@H](C(=O)N2CCCCC2)N(C)C(=O)[C@H](C(C)C)N(C)C(=O)C2(CCCC2)NC(=O)[C@@H]2CCCN2C(=O)[C@H](CCc2ccc(C(F)(F)F)c(Cl)c2)NC(=O)[C@@H](C)N(C)C(=O)[C@H](Cc2ccccc2)N(C)C(=O)CN(C)C(=O)CN(C)C1=O [Compound 1844] ([NMeA]I[Sar][Sar][NMeF][dNMeA][hPhe(3-Cl-4-CF3)]P[Ac5c][NMeV][NMeD]-Piperidide; lactam N-11),17 nM
9,CC[C@H](C)[C@@H]1NC(=O)[C@H](CC(C)C)N(C)C(=O)C[C@@H](C(=O)N2CCOCC2)N(C)C(=O)[C@H](C(C)C)N(C)C(=O)C2(CCCC2)NC(=O)[C@@H]2CCCN2C(=O)[C@H](CCc2ccc(C(F)(F)F)c(Cl)c2)NC(=O)CN(C)C(=O)[C@H](CC2CCCC2)N(C)C(=O)CN(C)C(=O)CN(C)C1=O [Compound 1848] ([NMeL]I[Sar][Sar][NMeAla(cPent)][Sar][hPhe(3-Cl-4-CF3)]P[Ac5c][NMeV][NMeD]-Morpholide; lactam N-11),1.4 nM
10,CC[C@H](C)[C@@H]1NC(=O)[C@H](C)N(C)C(=O)C[C@@H](C(=O)N2CCCCC2)N(C)C(=O)[C@H](C(C)C)N(C)C(=O)C2(CCCC2)NC(=O)[C@@H]2CCCN2C(=O)[C@H](CCc2ccc(C(F)(F)F)c(Cl)c2)NC(=O)[C@@H](C)N(C)C(=O)[C@H](Cc2ccc(F)cc2)N(C)C(=O)[C@@H]2CCCN2C(=O)CN(C)C1=O [Compound 1853] ([NMeA]I[Sar]P[NMePhe(4-F)][dNMeA][hPhe(3-Cl-4-CF3)]P[Ac5c][NMeV][NMeD]-Piperidide; lactam N-11),8.9 nM
11,CCCOC[C@H]1C(=O)N(C)[C@H](C(=O)N2CCCCC2)CC(=O)N(C)[C@@H](CC(C)C)C(=O)N[C@@H]([C@@H](C)CC)C(=O)N(C)[C@@H](C)C(=O)N2CC[C@H]2C(=O)N(C)[C@@H](CC2CCCCC2)C(=O)N(C)CC(=O)N[C@@H](CCc2ccc(C(F)(F)F)c(Cl)c2)C(=O)N2CCC[C@H]2C(=O)NC2(CCCC2)C(=O)N1C [Compound 1855] ([NMeL]I[NMeA][Aze][NMeCha][Sar][hPhe(3-Cl-4-CF3)]P[Ac5c][NMeS](Propyl)[NMeD]-Piperidide; lactam N-11),340 nM
12,CC[C@H](C)[C@@H]1NC(=O)[C@H](CC(C)C)N(C)C(=O)C[C@@H](C)NC(=O)[C@H](C2CCCCC2)N(C)C(=O)C2(CCCC2)NC(=O)[C@@H]2CCCN2C(=O)[C@H](CCc2ccc(C(F)(F)F)c(Cl)c2)NC(=O)CN(C)C(=O)[C@H](Cc2ccc(C)cc2)N(C)C(=O)CN(C)C(=O)CN(C)C1=O [Compound 1856] (cyclo([Ac5c][NMeChg][d(β3hA)][NMeL]I[Sar][Sar][NMePhe(4-Me)][Sar][hPhe(3-Cl-4-CF3)]P)),5.4 nM
13,CC[C@H](C)[C@@H]1NC(=O)[C@H](CC(C)C)N(C)C(=O)C[C@@H](C(=O)N2CCCCC2)N(C)C(=O)[C@H](COC2CC2)N(C)C(=O)C2(CCCC2)NC(=O)[C@@H]2CCCN2C(=O)[C@H](CCc2ccc(C(F)(F)F)c(Cl)c2)NC(=O)CN(C)C(=O)[C@H](CC2CCCCC2)N(C)C(=O)CN(C)C(=O)CN(C)C1=O [Compound 1857] ([NMeL]I[Sar][Sar][NMeCha][Sar][hPhe(3-Cl-4-CF3)]P[Ac5c][NMeS](Cyclopropyl)[NMeD]-Piperidide; lactam N-11),19 nM
14,CC[C@H](C)[C@@H]1NC(=O)[C@H](CC(C)C)N(C)C(=O)C[C@@H](C(=O)N(C)C)N(C)C(=O)[C@H]([C@@H](C)CC)N(C)C(=O)C2(CCCC2)NC(=O)[C@@H]2CCCN2C(=O)[C@H](CCc2ccc(C(F)(F)F)c(Cl)c2)NC(=O)CN(C)C(=O)[C@H](CC2CCCCC2)N(C)C(=O)[C@@H]2CCN2C(=O)[C@H](C)N(C)C1=O [Compound 1858] ([NMeL]I[NMeA][Aze][NMeCha][Sar][hPhe(3-Cl-4-CF3)]P[Ac5c][NMeI][NMeD]-NMe2; lactam N-11),1.1 nM
15,CC(C)C[C@H]1C(=O)N[C@@H](C2CC2)C(=O)N(C)CC(=O)N(C)CC(=O)N(C)[C@@H](CC2CCCCC2)C(=O)N(C)CC(=O)N[C@@H](CCc2ccc(C(F)(F)F)c(Cl)c2)C(=O)N2CCC[C@H]2C(=O)NC2(CCCC2)C(=O)N(C)[C@@H](C2CCCCC2)C(=O)N(C)[C@H](C(=O)N2CCCCC2)CC(=O)N1C [Compound 1862] ([NMeL][Gly(cPr)][Sar][Sar][NMeCha][Sar][hPhe(3-Cl-4-CF3)]P[Ac5c][NMeChg][NMeD]-Piperidide; lactam N-11),2 nM
16,"CC(C)C[C@H]1C(=O)N[C@@H](CC(F)(F)F)C(=O)N(C)[C@@H](C)C(=O)N2CC[C@H]2C(=O)N(C)[C@@H](CC2CCCCC2)C(=O)N(C)CC(=O)N[C@@H](CCc2ccc(C(F)(F)F)c(Cl)c2)C(=O)N2CCC[C@H]2C(=O)NC2(CCCC2)C(=O)N(C)[C@@H](C(C)C)C(=O)N(C)[C@H](C(=O)N2CCCCC2)CC(=O)N1C [Compound 1864] ([NMeL][Abu(4,4,4-F3)][NMeA][Aze][NMeCha][Sar][hPhe(3-Cl-4-CF3)]P[Ac5c][NMeV][NMeD]-Piperidide; lactam N-11)",48 nM
17,CC[C@H](C)[C@@H]1NC(=O)[C@H](CC(C)C)N(C)C(=O)C[C@@H](C(=O)N(C)C)N(C)C(=O)[C@H]([C@@H](C)CC)N(C)C(=O)C2(CCCC2)NC(=O)[C@@H]2CCCN2C(=O)[C@H](CCc2ccc(C(F)(F)F)c(Cl)c2)NC(=O)CN(C)C(=O)[C@H](CC2CCCCC2)N(C)C(=O)CN(C)C(=O)CN(C)C1=O [Compound 1865] ([NMeL]I[Sar][Sar][NMeCha][Sar][hPhe(3-Cl-4-CF3)]P[Ac5c][NMeI][NMeD]-NMe2; lactam N-11),0.43 nM
18,CC[C@H](C)[C@@H]1NC(=O)[C@H](CC(C)C)N(C)C(=O)C[C@@H](C(=O)N(C)C)N(C)C(=O)[C@H]([C@@H](C)CC)N(C)C(=O)C2(CCCC2)NC(=O)[C@H](Cc2cccc(Br)c2)N(C)C(=O)[C@H](CCc2ccc(C(F)(F)F)c(Cl)c2)NC(=O)CN(C)C(=O)[C@H](Cc2ccc(C)cc2)N(C)C(=O)[C@@H]2CCN2C(=O)[C@H](C)N(C)C1=O [Compound 1873] ([NMeL]I[NMeA][Aze][NMePhe(4-Me)][Sar][hPhe(3-Cl-4-CF3)][NMePhe(3-Br)][Ac5c][NMeI][NMeD]-NMe2; lactam N-11),33 nM
